Counter-ions that a name gives are not always drawn.
Tests used:
[1] = tested on: corn planthopper (Peregrinus maidis (Ashmead)); assay: Test C: control of corn planthopper through contact and/or systemic means; assay type: in vivo; settings: 144 h, sprayed at 50 ppm, 6 days, nymphs on corn plant
Method: (§1) Test compounds were formulated using a solution containing 10% acetone, 90% water and 300 ppm Activator 900 non-ionic surfactant (Loveland Products, Loveland, Colo., USA). The formulated compounds were applied in 1 mL of liquid through an atomizer nozzle positioned 1.27 cm (0.5 inches) above the top of each test unit. Test compounds were sprayed at the rates indicated, and each test was replicated three times.
For evaluating control of corn planthopper (Peregrinus maidis (Ashmead)) through contact and/or systemic means, the test unit consisted of a small open container with a 3-4-day-old corn (maize) plant inside. White sand was added to the top of the soil prior to application of the test compound.
(§2) Test compounds were formulated and sprayed at 50 ppm. After spraying of the formulated test compound, the test units were allowed to dry for 1 h before they were post-infested with ˜15-20 nymphs (18-to-21-day-old). A black, screened cap was placed on the top of each test unit, and the test units were held for 6 days in a growth chamber at 22-24° C. and 50-70% relative humidity. Each test unit was then visually assessed for insect mortality.

[2] = tested on: green peach aphid (Myzus persicae (Sulzer)); assay: Test E: control of green peach aphid through contact and/or systemic means; assay type: in vivo; settings: 144 h, sprayed at 50 ppm, 6 days, radish plant
Method: as §1
For evaluating control of green peach aphid (Myzus persicae (Sulzer)) through contact and/or systemic means, the test unit consisted of a small open container with a 12-15-day-old radish plant inside. This was pre-infested by placing on a leaf of the test plant 30-40 aphids on a piece of leaf excised from a culture plant (cut-leaf method). The aphids moved onto the test plant as the leaf piece desiccated. After pre-infestation, the soil of the test unit was covered with a layer of sand.
Test compounds were formulated and sprayed at 50 ppm. After spraying of the formulated test compound, each test unit was allowed to dry for 1 hour and then a black, screened cap was placed on top. The test units were held for 6 days in a growth chamber at 19-21° C. and 50-70% relative humidity. Each test unit was then visually assessed for insect mortality.

[3] = tested on: cotton melon aphid (Aphis gossypii (Glover)); assay: Test F: control of cotton melon aphid through contact and/or systemic means; assay type: in vivo; settings: 144 h, sprayed at 50 ppm, 6 days, okra plant
Method: as §1
[…] This was pre-infested with 30-40 insects on a piece of leaf according to the cut-leaf method, and the soil of the test unit was covered with a layer of sand.
Test compounds were formulated and sprayed at 50 ppm. After spraying, the test units were maintained in a growth chamber for 6 days at 19° C. and 70% relative humidity. Each test unit was then visually assessed for insect mortality.

[4] = tested on: potato leafhopper (Empoasca fabae (Harris)); assay: Test D: control of potato leafhopper through contact and/or systemic means; assay type: in vivo; settings: 144 h, sprayed at 50 ppm, 6 days, adults on Soleil bean plant
Method: as §1
For evaluating control of potato leafhopper (Empoasca fabae (Harris)) through contact and/or systemic means, the test unit consisted of a small open container with a 5-6-day-old Soleil bean plant (primary leaves emerged) inside. White sand was added to the top of the soil, and one of the primary leaves was excised prior to application of the test compound.
as §2, with “1 hour” for “1 h”, “with 5 potato leafhoppers (18-to-21-day-old adults).” for “with ˜15-20 nymphs (18-to-21-day-old).”, “of the” for “of each”, “at 20°” for “at 22-24°”, “and 70%” for “and 50-70%”

Row | Structure (SMILES) | melting point [°C] | mortality at 50 ppm [1] [%] | mortality at 50 ppm [2] [%] | mortality at 50 ppm [3] [%] | mortality at 50 ppm [4] [%]
1 | CCOc1cc(C#CC(C)C)cc(-c2c([O-])[n+](Cc3cnc(Cl)s3)c3c(C)cccn3c2=O)c1 (as salt: salt) [Compound 54, 1-[(2-chloro-5-thiazolyl)methyl]-3-[3-ethoxy-5-(3-methyl-1-butyn-1-yl)phenyl]-2-hydroxy-9-methyl-4-oxo-4H-pyrido[1,2-a]pyrimidinium inner salt] | 90 to 97 | – | – | – | –
2 | CCC#Cc1cc(Cl)cc(-c2c([O-])[n+](Cc3cnc(Cl)s3)c3c(C)cccn3c2=O)c1 [Compound 1, 3-[3-(1-butyn-1-yl)-5-chlorophenyl]-1-[(2-chloro-5-thiazolyl)methyl]-2-hydroxy-9-methyl-4-oxo-4H-pyrido[1,2-a]pyrimidinium inner salt] | – | ≥ 80 | ≥ 80 | ≥ 80 | –
3 | CCC#Cc1cccc(-c2c([O-])[n+](Cc3cnc(Cl)s3)c3c(C)cccn3c2=O)c1 [Compound 2, 3-[3-(1-butyn-1-yl)phenyl]-1-[(2-chloro-5-thiazolyl)methyl]-2-hydroxy-9-methyl-4-oxo-4H-pyrido[1,2-a]pyrimidinium inner salt] | – | ≥ 80 | ≥ 80 | ≥ 80 | –
4 | COc1cc(C#CC2CC2)cc(-c2c([O-])[n+](Cc3cnc(Cl)s3)c3c(C)cccn3c2=O)c1 [Compound 4, 1-[(2-chloro-5-thiazolyl)methyl]-3-[3-(2-cyclopropylethynyl)-5-methoxyphenyl]-2-hydroxy-9-methyl-4-oxo-4H-pyrido[1,2-a]pyrimidinium inner salt] | – | ≥ 80 | ≥ 80 | ≥ 80 | ≥ 80
5 | Cc1cc(C#CC(C)C)cc(-c2c([O-])[n+](Cc3cnc(Cl)s3)c3c(C)cccn3c2=O)c1 [Compound 7, 1-[(2-chloro-5-thiazolyl)methyl]-2-hydroxy-9-methyl-3-[3-methyl-5-(3-methyl-1-butyn-1-yl)phenyl]-4-oxo-4H-pyrido[1,2-a]pyrimidinium inner salt] | – | ≥ 80 | ≥ 80 | ≥ 80 | ≥ 80
6 | Cc1cc(C#CC2CC2)cc(-c2c([O-])[n+](Cc3cnc(Cl)s3)c3c(C)cccn3c2=O)c1 [Compound 11, 1-[(2-chloro-5-thiazolyl)methyl]-3-[3-(2-cyclopropylethynyl)-5-methylphenyl]-2-hydroxy-9-methyl-4-oxo-4H-pyrido[1,2-a]pyrimidinium inner salt] | – | ≥ 80 | ≥ 80 | ≥ 80 | ≥ 80
7 | Cc1cccn2c(=O)c(-c3cc(C#CC4CC4)cc(C(C)C)c3)c([O-])[n+](Cc3cnc(Cl)s3)c12 [Compound 14] | – | – | ≥ 80 | ≥ 80 | –
8 | COc1cc(C#CC(C)C)cc(-c2c([O-])[n+](Cc3cnc(Cl)s3)c3c(C)cccn3c2=O)c1 [Compound 18] | – | – | ≥ 80 | ≥ 80 | –
9 | Cc1cccn2c(=O)c(-c3cc(F)cc(C#CC(C)C)c3)c([O-])[n+](Cc3cnc(Cl)s3)c12 [Compound 21] | – | – | ≥ 80 | ≥ 80 | ≥ 80
10 | Cc1cccn2c(=O)c(-c3cc(C#CC(C)C)cc(C(F)(F)F)c3)c([O-])[n+](Cc3cnc(Cl)s3)c12 [Compound 26] | – | – | – | – | ≥ 80
11 | Cc1cccn2c(=O)c(-c3cc(F)cc(C#CC4CC4)c3)c([O-])[n+](Cc3cnc(Cl)s3)c12 [Compound 29] | – | – | ≥ 80 | – | –
12 | Cc1cccn2c(=O)c(-c3cc(Cl)cc(C#CC4CC4)c3)c([O-])[n+](Cc3cnc(Cl)s3)c12 [Compound 35] | – | – | ≥ 80 | ≥ 80 | –
13 | Cc1cccn2c(=O)c(-c3cccc(C#CC4CC4)c3)c([O-])[n+](Cc3cnc(Cl)s3)c12 [Compound 37, 1-[(2-chloro-5-thiazolyl)methyl]-3-[3-(2-cyclopropylethynyl)phenyl]-2-hydroxy-9-methyl-4-oxo-4H-pyrido[1,2-a]pyrimidinium inner salt] | – | ≥ 80 | ≥ 80 | ≥ 80 | ≥ 80
14 | Cc1cccn2c(=O)c(-c3cccc(C#CC(C)C)c3)c([O-])[n+](Cc3cnc(Cl)s3)c12 [Compound 44, 1-[(2-chloro-5-thiazolyl)methyl]-2-hydroxy-9-methyl-3-[3-(3-methyl-1-butyn-1-yl)phenyl]-4-oxo-4H-pyrido[1,2-a]pyrimidinium inner salt] | – | ≥ 80 | ≥ 80 | ≥ 80 | ≥ 80
15 | Cc1cccn2c(=O)c(-c3cc(Cl)cc(C#Cc4ccccc4)c3)c([O-])[n+](Cc3cnc(Cl)s3)c12 [Compound 47] | – | – | – | ≥ 80 | ≥ 80
16 | CCOc1cc(C#CC2CC2)cc(-c2c([O-])[n+](Cc3cnc(Cl)s3)c3c(C)cccn3c2=O)c1 [Compound 51, 1-[(2-chloro-5-thiazolyl)methyl]-3-[3-(2-cyclopropylethynyl)-5-ethoxyphenyl]-2-hydroxy-9-methyl-4-oxo-4H-pyrido[1,2-a]pyrimidinium inner salt] | – | ≥ 80 | ≥ 80 | ≥ 80 | –
17 | CC#Cc1cccc(-c2c([O-])[n+](Cc3cnc(Cl)s3)c3c(C)cccn3c2=O)c1 [Compound 61] | – | ≥ 80 | – | ≥ 80 | ≥ 80
18 | Cc1ccc(-c2c([O-])[n+](Cc3cnc(Cl)s3)c3c(C)cccn3c2=O)cc1C#CC(C)C [Compound 86] | – | ≥ 80 | ≥ 80 | ≥ 80 | ≥ 80

— patent publication US20230101273A1, “MESOIONIC INSECTICIDES” (FMC Corporation, priority 2020, published 2023)
